Measurements reported in ChEMBL document CHEMBL1667752 (Eur J Med Chem, 2011).

These molecules were tested against Cannabinoid receptor 2 (Homo sapiens, UniProt P34972) (assay: Displacement of [3H]CP 55940 from human CB2 receptor in cell free system). Conditions: read-out: Ki.
Cannabinoid receptor 2, sequence (P34972 whole entry): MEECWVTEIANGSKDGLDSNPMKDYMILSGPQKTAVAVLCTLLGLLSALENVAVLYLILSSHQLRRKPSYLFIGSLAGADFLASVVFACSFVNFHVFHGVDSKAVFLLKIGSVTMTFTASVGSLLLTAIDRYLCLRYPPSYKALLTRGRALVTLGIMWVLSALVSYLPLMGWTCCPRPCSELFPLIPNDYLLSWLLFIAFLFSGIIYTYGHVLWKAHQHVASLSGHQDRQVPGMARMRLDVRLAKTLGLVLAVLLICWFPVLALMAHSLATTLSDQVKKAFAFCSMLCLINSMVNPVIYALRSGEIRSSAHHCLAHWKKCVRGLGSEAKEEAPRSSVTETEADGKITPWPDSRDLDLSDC

SMILES | Ki [nM]
CC1(C)C(C(=O)c2cn(CC3CCOCC3)c3cc(-c4ccccc4)ccc23)C1(C)C | 0.4
Cc1nc(C(=O)Nc2ccccc2C(F)(F)F)c(C)n1-c1ccccc1 | 3.5
COCc1ccc2c(c1)c(C(=O)C1C(C)(C)C1(C)C)cn2CC1CCOCC1 | 25
CCCCCn1cc(C(=O)NC23CC4CC(CC(C4)C2)C3)c(=O)c2cccc(C)c21 | 4.9
COCCn1c(C)c(C(C)(C)C)s/c1=N\C(=O)c1ccc(C(F)(F)F)cc1 | 10
COc1cccc2c(C(=O)C3C(C)(C)C3(C)C)cn(CC3CCOCC3)c12 | 0.1
COCCn1c(C)c(C)s/c1=N\C(=O)C1C(C)(C)C1(C)C | 0.64
Cc1ccc2c(C(=O)C3C(C)(C)C3(C)C)cn(CC3CCOCC3)c2c1 | 0.2

Same assay, conditions: read-out: pKi (converted)

SMILES | Ki [nM]
O=S(=O)(CCCC(F)(F)F)Oc1cccc(Oc2cccc3c2C[C@H](CO)C3)c1 | 4.27
CCCCCCNC(=O)c1cn(CCCCC)c2ccc(Br)cc2c1=O | 891
CCCCCn1cc(C(=O)NC23CC4CC(CC(C4)C2)C3)c(=O)c2cc(-c3c(C)noc3C)ccc21 | 102
CCCCC/C=C\C/C=C\C/C=C\C/C=C\CCCC(=O)N[C@H]1C[C@@H]1O | 191
COc1ccc(-c2oc3cc(OC)ccc3c2C(=O)c2ccc(C#N)cc2)cc1 | 14800

Organism: Homo sapiens
Assay: Selectivity ratio of Ki for human CB1 to Ki for human CB2
Conditions: not given

SMILES | log(ratioKi)
CCCCc1c(C(=O)NC23CC4CC(CC(C4)C2)C3)nc(C)n1-c1ccccc1 | 2.3
CCCCCn1cc(C(=O)NC23CC4CC(CC(C4)C2)C3)c(=O)c2cc(C(F)(F)F)ccc21 | 2.34
Cc1ccc(NC(=O)C(C)(C(F)(F)F)C(F)(F)F)cc1S(=O)(=O)N1CCOCC1 | 1.31
COCCn1cc(C(=O)C2C(C)(C)C2(C)C)c2ccccc21 | 2.35
CCCCCn1cc(C(=O)NC23CC4CC(CC(C4)C2)C3)c(=O)c2cc(Sc3ccccc3)ccc21 | 2.28
CC1(C)C(C(=O)c2cn(CC3CCOCC3)c3cc(-c4ccccc4)ccc23)C1(C)C | 2.27
Cc1ccc(-c2nc(CC(C)(C)C)cs2)cc1S(=O)(=O)N1CCOCC1 | 1.58
Cc1nc(C(=O)Nc2ccccc2C(F)(F)F)c(C)n1-c1ccccc1 | 2.6
CCCCCn1cc(C(=O)NC23CC4CC(CC(C4)C2)C3)c(=O)c2cccc(C)c21 | > 3.3
CCCCCn1cc(C(=O)NC23CC4CC(CC(C4)C2)C3)c(=O)c2cc(Br)ccc21 | 1.82
CC1(C)C(C(=O)c2cn(CC3CCOCC3)c3ccc(OCc4ccccc4)cc23)C1(C)C | 2.3
CCCCCn1cc(C(=O)NC23CC4CC(CC(C4)C2)C3)c(=O)c2cc(-c3ccco3)ccc21 | 4.15
COCCn1c(C)c(C(C)(C)C)s/c1=N\C(=O)c1ccc(C(F)(F)F)cc1 | 2.6
CCCCCn1cc(C(=O)NC23CC4CC(CC(C4)C2)C3)c(=O)c2cc(-c3ccc(F)cc3F)ccc21 | 2.79
CC1=CC[C@@H]2[C@@H](C1)c1c(O)cc(-c3cccc4ccccc34)cc1OC2(C)C | 0.09
C#Cc1ccc2c(c1)c(=O)c(C(=O)NC13CC4CC(CC(C4)C1)C3)cn2CCCCC | 3.05
CCCCCn1cc(C(=O)NC23CC4CC(CC(C4)C2)C3)c(=O)c2cc(-c3cccs3)ccc21 | 3.68
CCCCCn1cc(C(=O)NC23CC4CC(CC(C4)C2)C3)c(=O)c2cc(I)ccc21 | 2.01
Cc1ccc(C(=O)NC(C(C)(C)C)C(C)(C)C)cc1S(=O)(=O)N1CCOCC1 | 0.95

SMILES | log(ratioKi)
CCCCCn1cc(C(=O)NC23CC4CC(CC(C4)C2)C3)c(=O)c2cc(CCc3ccccc3)ccc21 | 2.27
CC1(C)C(C(=O)c2cn(C[C@@H]3CCCO3)c3ccccc23)C1(C)C | 1.82
Cc1c(C(=O)NC2CCCCC2)nn(-c2ccc(Cl)c(Cl)c2)c1-n1cccc1 | 0.52
CC1(Cc2ccccc2)COc2cc(C(=O)N3CCCCC3)ccc21 (configuration not stated) | 1.37
CN1CCCCC1Cn1cc(C(=O)c2cc([N+](=O)[O-])ccc2I)c2ccccc21 (configuration not stated) | 2.64
CCCCCn1cc(C(=O)NC23CC4CC(CC(C4)C2)C3)c(=O)c2cc(-n3ccnc3)ccc21 | 3.1
CCCCCn1cc(C(=O)NC2C3CC4CC(C3)CC2C4)c(=O)c2ccccc21 (configuration not stated) | 2.16
CCCCCn1cc(C(=O)NC23CC4CC(CC(C4)C2)C3)c(=O)c2cc(-c3ccc(Cl)s3)ccc21 | 2.35
C=CCCn1cc(C(=O)NC23CC4CC(CC(C4)C2)C3)c(=O)c2cc(-c3ccco3)ccc21 | 3.35
Cc1nc(C(=O)NC23CC4CC(CC(C4)C2)C3)c(C)n1-c1ccccc1 | 3.2
CCC(C)(C)C(=O)Nc1cc(CN2CCOCC2)c(C)cn1 | 2.19
CCCC(C)(C)c1ccc2c(c1)OC(C)(C)[C@@H]1CC=C(C)C[C@@H]21 | 2.3
CC1=CC[C@@H]2[C@@H](C1)c1c(O)cc(C3(C4CCCCC4)SCCS3)cc1OC2(C)C | 0.24
CCCCCn1cc(C(=O)NC23CC4CC(CC(C4)C2)C3)c(=O)c2cc(-c3ccc(O)cc3)ccc21 | 3.38
O=C(c1cn(CC2CCOCC2)c2ccccc12)C1CCCC1 | 1.07
N#Cc1c(Oc2cccc(OS(=O)(=O)CCCC(F)(F)F)c2)cccc1C(F)(F)F | 0.03
C#CCn1cc(C(=O)NC23CC4CC(CC(C4)C2)C3)c(=O)c2cc(Br)ccc21 | 1.81
CCc1nc(C(=O)NC23CC4CC(CC(C4)C2)C3)c(C)n1-c1ccccc1 | 3.41
CCCCCn1cc(C(=O)NC23CC4CC(CC(C4)C2)C3)c(=O)c2cc(-c3cc(C)c(OC)c(C)c3)ccc21 | 1.38

SMILES | log(ratioKi)
CCCCCn1c(C)c(C(=O)c2cccc3ccccc23)c2ccccc21 | 0.28
Cc1c(C(=O)NC2CCCCC2)nn(-c2ccc(Cl)c(Cl)c2)c1-n1c(C)ccc1C | 1.05
CCCCCn1cc(C(=O)NC23CC4CC(CC(C4)C2)C3)c(=O)c2cc(CC)ccc21 | 1.74
COCCn1c(C)c(C)s/c1=N\C(=O)C1C(C)(C)C1(C)C | 2.62
CCCCCn1cc(C(=O)NC23CC4CC(CC(C4)C2)C3)c(=O)c2cc(C3=CCCCC3)ccc21 | 3.08
CC1=CC[C@@H]2[C@@H](C1)c1c(O)cc(C3(C#N)CCCCC3)cc1OC2(C)C | 0.34
CCCCCn1cc(C(=O)NC23CC4CC(CC(C4)C2)C3)c(=O)c2cc(C3CCCCC3)ccc21 | 3.14
COc1ccc2c(c1)c(C(=O)C1C(C)(C)C1(C)C)cn2CC1CCOCC1 | 2
COc1ccc2c(c1)c(CCN1CCOCC1)c(C)n2C(=O)c1cccc(Cl)c1Cl | 2.21
Cc1ccc(NC(=O)C2CCCCC2(C)C)cc1S(=O)(=O)N1CCOCC1 (configuration not stated) | 1.85
CCCCCn1cc(C(=O)NC23CC4CC(CC(C4)C2)C3)c(=O)c2cc(-c3ccccc3)ccc21 | 3.42
CCCCCn1cc(C(=O)NC23CC4CC(CC(C4)C2)C3)c(=O)c2cc(-c3ccc(C#N)cc3)ccc21 | 2.38
CC1=CC[C@@H]2[C@@H](C1)c1c(O)cc(C(C)(C)C3CCCCCC3)cc1OC2(C)C | 0.63
CCCCCn1cc(C(=O)NC23CC4CC(CC(C4)C2)C3)c(=O)c2ccccc21 | 0.95
Cc1ccc(NC(=O)C2C(C)(C)C2(C)C)cc1S(=O)(=O)N1CCOCC1 | 2.16
CC1(C)C(C(=O)c2cn(CCN3CCOCC3)c3cccc(N)c23)C1(C)C | 2.05
CCCCCn1cc(C(=O)NC23CC4CC(CC(C4)C2)C3)c(=O)c2cc(-c3ccc(Cl)cc3)ccc21 | 3
Cc1ccc(-c2nc(CC3CCCCC3)cs2)cc1S(=O)(=O)N1CCOCC1 | 1.22

The molecules below were run against Cannabinoid receptor 1 (Homo sapiens, UniProt P21554) (assay: Displacement of [3H]CP 55940 from human CB1 receptor in cell free system). Conditions: not given.
Cannabinoid receptor 1, sequence (P21554 whole entry): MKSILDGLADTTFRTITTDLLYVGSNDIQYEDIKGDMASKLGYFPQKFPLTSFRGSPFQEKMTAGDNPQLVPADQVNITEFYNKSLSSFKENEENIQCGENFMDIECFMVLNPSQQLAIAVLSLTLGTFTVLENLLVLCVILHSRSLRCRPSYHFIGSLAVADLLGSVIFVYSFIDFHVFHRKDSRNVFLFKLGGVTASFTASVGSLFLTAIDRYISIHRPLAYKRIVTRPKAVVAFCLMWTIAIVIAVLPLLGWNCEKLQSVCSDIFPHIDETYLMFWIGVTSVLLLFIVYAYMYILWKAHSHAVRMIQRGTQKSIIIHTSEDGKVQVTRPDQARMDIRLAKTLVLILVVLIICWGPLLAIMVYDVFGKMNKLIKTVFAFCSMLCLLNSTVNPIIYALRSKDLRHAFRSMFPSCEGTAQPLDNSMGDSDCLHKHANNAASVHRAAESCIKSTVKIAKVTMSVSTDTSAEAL

SMILES | Ki [nM]
Cc1nc(C(=O)Nc2ccccc2C(F)(F)F)c(C)n1-c1ccccc1 | 1420
CCCCCn1cc(C(=O)NC23CC4CC(CC(C4)C2)C3)c(=O)c2cccc(C)c21 | > 10000
CC1(C)C(C(=O)c2cn(CC3CCOCC3)c3ccc(OCc4ccccc4)cc23)C1(C)C | 234
COCCn1c(C)c(C(C)(C)C)s/c1=N\C(=O)c1ccc(C(F)(F)F)cc1 | 4100
CC1(Cc2ccccc2)COc2cc(C(=O)N3CCCCC3)ccc21 (configuration not stated) | > 10000
N#Cc1c(Oc2cccc(OS(=O)(=O)CCCC(F)(F)F)c2)cccc1C(F)(F)F | 48.3
CCCCCOc1c(OC)ccc2cc(C(=O)NCc3ccc4c(c3)OCO4)c(=O)[nH]c12 | 2370
CC1(C)C(C(=O)c2cn(CCN3CCOCC3)c3cccc(N)c23)C1(C)C | 3500
